PubChem BioAssay (NCI)
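1) Cells in 96-well plates. 2) Compound, 48 h, 5 concentrations. 3) Linear interpolation between surrounding doses. 4) Unreached endpoint = highest concentration. At the TGI there is no net growth.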

Legend:
Experiment in all cases: inhibition of tumour cell growth, NCI panel, 48 h
[1] = test system: KM12 colon
[2] = test system: SF-295 CNS
[3] = test system: HCT-116 colon
[4] = test system: EKVX NSCLC
[5] = test system: MOLT-4 leukemia
[6] = test system: HOP-92 NSCLC
[7] = test system: MDA-MB-435
[8] = test system: IGROV1 ovarian
[9] = test system: MCF7 breast
[10] = test system: UACC-257 melanoma
[11] = test system: NCI-H460 lung
[12] = test system: A498 renal
[13] = test system: T-47D breast
[14] = test system: SF-539 CNS
[15] = test system: SF-268 CNS
[16] = test system: 786-0 renal
[17] = test system: HL-60(TB) leukemia
[18] = test system: SK-MEL-5 melanoma
[19] = test system: RXF 393 renal
[20] = test system: HT29 colon
[21] = test system: NCI-H23 lung
[22] = test system: SN12C renal
[23] = test system: SNB-19 CNS
[24] = test system: RPMI-8226 leukemia
[25] = test system: PC-3 prostate
[26] = test system: OVCAR-4 ovarian
[27] = test system: K-562 leukemia
[28] = test system: M14 melanoma
[29] = test system: COLO 205 colon
[30] = test system: MDA-N
[31] = test system: SR leukemia
[32] = test system: BT-549 breast
[33] = test system: UO-31 renal
[34] = test system: SK-MEL-28 melanoma
[35] = test system: CAKI-1 renal
[36] = test system: LOX IMVI melanoma
[37] = test system: DU-145 prostate
[38] = test system: ACHN renal
[39] = test system: SK-OV-3 ovarian
[40] = test system: U251 CNS
[41] = test system: NCI-H522 lung
[42] = test system: MALME-3M melanoma
[43] = test system: NCI-H226 lung
[44] = test system: HCT-15 colon
[45] = test system: CCRF-CEM leukemia
[46] = test system: HS 578T breast
[47] = test system: MDA-MB-231 breast
[48] = test system: OVCAR-3 ovarian
[49] = test system: TK-10 renal
[50] = test system: SW-620 colon
[51] = test system: HOP-62 NSCLC
[52] = test system: UACC-62 melanoma
[53] = test system: SNB-75 CNS
[54] = test system: HCC-2998 colon
[55] = test system: OVCAR-8 ovarian
[56] = test system: NCI/ADR-RES ovarian
[57] = test system: A549 NSCLC
[58] = test system: OVCAR-5 ovarian

CCCCN(C(=O)c1ccccc1)C1CCC(=O)c2[nH]c3ccccc3c21 (configuration not stated)
TGI [1]: > 100 µM
TGI [2]: > 100 µM
TGI [3]: > 100 µM
TGI [4]: > 100 µM
TGI [5]: > 100 µM
TGI [6]: 84.5 µM
TGI [7]: > 100 µM
TGI [8]: > 100 µM
TGI [9]: > 100 µM
TGI [10]: > 100 µM
TGI [11]: > 100 µM
TGI [12]: > 100 µM
TGI [13]: 89.9 µM
TGI [14]: > 100 µM
TGI [15]: > 100 µM
TGI [16]: > 100 µM
TGI [17]: 29.6 µM
TGI [18]: 49.9 µM
TGI [19]: 70 µM
TGI [20]: > 100 µM
TGI [21]: > 100 µM
TGI [22]: > 100 µM
TGI [23]: > 100 µM
TGI [24]: 68.8 µM
TGI [25]: > 100 µM
TGI [26]: > 100 µM
TGI [27]: > 100 µM
TGI [28]: > 100 µM
TGI [29]: 48.1 µM
TGI [30]: > 100 µM
TGI [31]: 41.4 µM
TGI [32]: > 100 µM
TGI [33]: > 100 µM
TGI [34]: > 100 µM
TGI [35]: 84 µM
TGI [36]: > 100 µM
TGI [37]: > 100 µM
TGI [38]: > 100 µM
TGI [39]: > 100 µM
TGI [40]: > 100 µM
TGI [41]: > 100 µM
TGI [42]: > 100 µM
TGI [43]: 93.4 µM
TGI [44]: > 100 µM
TGI [45]: > 100 µM
TGI [46]: 51.2 µM
TGI [47]: > 100 µM
TGI [48]: > 100 µM
TGI [49]: > 100 µM
TGI [50]: > 100 µM
TGI [51]: > 100 µM
TGI [52]: > 100 µM
TGI [53]: 75.2 µM
TGI [54]: > 100 µM
TGI [55]: > 100 µM
TGI [56]: > 100 µM
TGI [57]: > 100 µM

CC(=O)NC(Cc1cnc[nH]1)C(=O)N1CCCC1C(N)=O (configuration not stated)
TGI [1]: > 100 µM
TGI [2]: > 100 µM
TGI [3]: > 100 µM
TGI [4]: > 100 µM
TGI [5]: > 100 µM
TGI [6]: > 100 µM
TGI [7]: > 100 µM
TGI [8]: > 100 µM
TGI [9]: > 100 µM
TGI [11]: > 100 µM
TGI [13]: > 100 µM
TGI [15]: > 100 µM
TGI [16]: > 100 µM
TGI [17]: > 100 µM
TGI [18]: > 100 µM
TGI [19]: > 100 µM
TGI [20]: > 100 µM
TGI [21]: > 100 µM
TGI [22]: > 100 µM
TGI [23]: > 100 µM
TGI [24]: > 100 µM
TGI [25]: > 100 µM
TGI [26]: > 100 µM
TGI [27]: > 100 µM
TGI [28]: > 100 µM
TGI [29]: > 100 µM
TGI [30]: > 100 µM
TGI [31]: > 100 µM
TGI [32]: > 100 µM
TGI [33]: > 100 µM
TGI [34]: > 100 µM
TGI [35]: > 100 µM
TGI [36]: > 100 µM
TGI [37]: > 100 µM
TGI [38]: > 100 µM
TGI [39]: > 100 µM
TGI [40]: > 100 µM
TGI [41]: > 100 µM
TGI [42]: > 100 µM
TGI [43]: > 100 µM
TGI [44]: > 100 µM
TGI [45]: > 100 µM
TGI [46]: > 100 µM
TGI [47]: > 100 µM
TGI [48]: > 100 µM
TGI [49]: > 100 µM
TGI [50]: > 100 µM
TGI [51]: > 100 µM
TGI [52]: > 100 µM
TGI [53]: > 100 µM
TGI [54]: > 100 µM
TGI [55]: > 100 µM
TGI [58]: > 100 µM
TGI [56]: > 100 µM
TGI [57]: > 100 µM
